Assay results as given in patent publication US20250108036A1, “COMPOSITIONS FOR REMOVING SENESCENT CELLS AND USES THEREOF” (LIFECEUTIX CO., LTD., priority 2021, published 2025).
Read-outs that look alike come from different tables or passages of the source.

How the values were obtained:
Type in all cases: cell-based, human
[1] = test system: A549; assay: CellTiter-Glo cell viability of senescent A549 cancer cells (Example 12, Table 67); settings: Homo sapiens; for viability at 90 µM: 90 μM test compound; for viability at 270 µM: 270 μM test compound
[2] = test system: foreskin cells in which senescence was induced by doxorubicin; assay: CellTiter-Glo cell viability of doxorubicin-induced senescent foreskin cells (Examples 1-2, 10, 11, 13; Tables 4, 63, 65); settings: Homo sapiens, 72 h, read-out: Survival (%); for viability at 30 µM: 30 μM test compound; for viability at […]: […] test compound; for viability at 90 µM: 90 μM test compound
Experimental: After 3 days, cell viability was measured using CellTiter-Glo Luminescent Cell Viability Assay (Promega) or light microscopy.

[3] = test system: HMGN1; assay: HMGN1 ELISA in culture medium of foreskin cells (Examples 10, 11; Tables 62, 63, 64); settings: Homo sapiens; for activity at 30 µM: read-out: HMGN1; for activity at 90 µM: 90 μM test compound
[4] = test system: HMGN1; assay: HMGN1 ELISA in culture medium of A549 cancer cells (Example 12, Table 66); settings: Homo sapiens; for activity at 90 µM: test compound 90 μM
[5] = A549, doxorubicin-induced senescent A549 cancer cells, 1.1 μM test compound, CellTiter-Glo, read-out: Survival (%)
[6] = A549, doxorubicin-induced senescent A549 cancer cells, 10 μM test compound, CellTiter-Glo, read-out: Survival (%)
[7] = A549, doxorubicin-induced senescent A549 cancer cells, 30 μM test compound, CellTiter-Glo, read-out: Survival (%)
[8] = A549, doxorubicin-induced senescent A549 cancer cells, CellTiter-Glo, read-out: Survival (%)
[9] = 1.1 μM test compound, doxorubicin-induced senescent foreskin cells, CellTiter-Glo, 0 μM = 100
[10] = 10 μM test compound, doxorubicin-induced senescent foreskin cells, CellTiter-Glo, 0 μM = 100
[11] = doxorubicin-induced senescent foreskin cells, CellTiter-Glo, 0 μM = 100
[12] = 30 μM test compound, doxorubicin-treated foreskin cells, DMSO = 100
[13] = A549, doxorubicin-induced senescent A549 cells, ELISA, DMSO = 100, read-out: HMGN1 (amount of HMGN1 secreted in the cell culture)
[14] = A549, read-out: HMGN1 (amount of HMGN1 secreted in the cell culture)
[15] = A549, doxorubicin-induced senescent A549 cells, test compound 30 μM, ELISA, DMSO = 100, read-out: HMGN1 (amount of HMGN1 secreted in the cell culture)
[16] = doxorubicin-treated foreskin cells, DMSO = 100

Structure (SMILES)	viability at 1.1 µM [1, 5]	viability at 10 µM [1, 6]	viability at 30 µM [1, 7]	viability at 1.1 µM [2, 9]	viability at 10 µM [2, 10]	viability at 30 µM [2, 11]	viability at […] [2, 11]	activity at 30 µM [3, 12]	activity at 30 µM [4, 15]	also measured
Cc1ccc(-c2c(C#N)c(N)n3c(nc4ccccc43)c2C#N)cc1 [LX-1101]	95.4%	92.7%	88.3%	108%	47.1%	22.8%	112%	268%		viability at 90 µM [1, 8]: 23.7%; activity at 90 µM [4, 13]: 183%
NCC(=O)CCC(=O)O [LX-1103, 5-Aminolevulinic acid, reference compound]	96.6%	95.1%	91%	104%	99.6%	95.2%	98.9%			viability at 90 µM [1, 8]: 91.1%; viability at 270 µM [1, 8]: 63.7%; viability at 90 µM [2, 11]: 88%; viability at 270 µM ([2]; 270 μM test compound, doxorubicin-induced senescent foreskin cells, CellTiter-Glo, 0 μM = 100): 61.3%; activity at 270 µM ([3]; 270 μM test compound, doxorubicin-treated foreskin cells, DMSO = 100): 172%; activity at 270 µM ([4]; A549, doxorubicin-induced senescent A549 cells, test compound 270 μM, ELISA, DMSO = 100, read-out: HMGN1 (amount of HMGN1 secreted in the cell culture)): 158%
CCCCCCCCCCCCCCCC[P+](c1ccccc1)(c1ccccc1)c1ccccc1 [LX-1201, Hexadecyltriphenylphosphonium]										viability at 1.1 µM ([1]; A549, read-out: Survival (%)): 47.3%; viability at 1.1 µM [2]: 23%; activity at 30 µM [3]: 311%; activity at 30 µM [4, 14]: 289%
COC1=C(OC)C(=O)C(CCCCCCCCCC[P+](c2ccccc2)(c2ccccc2)c2ccccc2)=C(C)C1=O [LX-1203, Mitoquinone]	88.7%	15.5%			1.5%		38.2%	311%	298%	
Clc1ccc(C(c2ccccc2Cl)C(Cl)Cl)cc1 (stereo not drawn) [LX-1301, Mitotane, reference compound]	106%	101%	17.5%	104%	83%	0.4%	106%	281%	318%	
O=C(O)c1cc(/N=N/c2ccc(S(=O)(=O)Nc3ccccn3)cc2)ccc1O [LX-1302, Sulfasalazine, reference compound]	95.5%	102%	102%	102%	92.2%	79.6%	105%			viability at 90 µM [1, 8]: 69.6%; viability at 270 µM [1, 8]: 19.8%; viability at 90 µM [2, 11]: 52.4%; activity at 90 µM [3, 16]: 171%; activity at 90 µM [4, 13]: 147%
C[C@H](CN1CCCC1)C(=O)c1ccc(C(F)(F)F)cc1 [LX-1402, Lanperisone, reference compound]	97.6%	81.1%	29.5%	101%	15.6%	2.1%	97.6%	304%	248%	
Cc1ccc(C(=O)C(C)CN2CCCCC2)cc1 (stereo not drawn) [LX-1403, Tolperisone, reference compound]	97.6%	70%	8.4%	102%	55.4%	18.3%	97.6%	282%	306%	
CCc1ccc(C(=O)C(C)CN2CCCC2)cc1 (stereo not drawn) [LX-1405, Inaperisone, reference compound]	97.1%	82.8%	37.4%	102%	69.6%	28.5%	92.7%	219%	187%	
CCN(CC)C(=S)SSC(=S)N(CC)CC [LX-1601, Disulfiram, reference compound]	114%	118%	74.2%	93.7%	95.6%	61.4%	90%	154%		viability at 90 µM [1, 8]: 3.1%; activity at 90 µM [4, 13]: 257%
Cc1c(-c2ccc(-c3ccccc3F)cc2)nc2ccc(F)cc2c1C(=O)O [LX-1602, Brequinar, reference compound]	94.3%	96.5%	39.8%	109%	57.7%	36.4%	93.8%	228%	197%	
Cc1oncc1C(=O)Nc1ccc(C(F)(F)F)cc1 [LX-1603, Leflunomide, reference compound]	99.6%	95.7%	96.5%	101%	91.1%	84.3%	95.6%			viability at 90 µM [1, 8]: 49.8%; viability at 90 µM [2, 11]: 48.3%; activity at 90 µM [3, 16]: 168%; activity at 90 µM [4, 13]: 163%
Cc1c(O)ccc2c1OCC(c1ccc(O)cc1)C2c1ccc(O)cc1 (stereo not drawn) [LX-1605]	91.7%	41.8%	6.4%	83.4%	43.7%	11.3%	63.8%	284%	338%	
CS(=O)(=O)CCNCc1ccc(-c2ccc3ncnc(Nc4ccc(OCc5cccc(F)c5)c(Cl)c4)c3c2)o1 [LX-1607, Lapatinib, reference compound]	95.7%	62.7%	15.1%	77%	54.3%	32.8%	68%	238%	311%	
CCOc1cc2ncc(C#N)c(Nc3ccc(OCc4ccccn4)c(Cl)c3)c2cc1NC(=O)/C=C/CN(C)C [LX-1608, Neratinib, reference compound]										viability at 1.1 µM ([1]; A549, read-out: Survival (%)): 59.3%; viability at 10 µM ([1]; A549, read-out: Survival (%)): 24.7%; viability at 30 µM ([1]; A549, read-out: Survival (%)): 2.6%; viability at 1.1 µM [2]: 45.1%; viability at 10 µM [2]: 3.9%; activity at 30 µM [3]: 296%; activity at 30 µM [4, 14]: 317%
CO[C@]1(C(=O)N[C@@H](C)c2ccc(-n3cc(F)cn3)nc2)CC[C@H](c2nc(C)cc(Nc3cc(C)[nH]n3)n2)CC1 [LX-1902, Pralsetinib, reference compound]	66.2%	4.2%		59%	11.9%	3.9%	39.6%	303%	271%	
Cc1c(O)cccc1C(=O)N[C@@H](CSc1ccccc1)[C@H](O)CN1C[C@H]2CCCC[C@H]2C[C@H]1C(=O)NC(C)(C)C [LX-1905, Nelfinavir, reference compound]	100%	89.1%	53.9%	102%	27.9%	13.2%	66.4%	315%	201%	
C[C@H]1[C@H](C)CC[C@]2(C(=O)O)CC[C@]3(C)C(=CC[C@@H]4[C@@]5(C)CC[C@H](O)C(C)(C)[C@@H]5CC[C@]43C)[C@H]12 [LX-2001, Ursolic acid]	98.3%	5.1%		75.2%			0.8%	328%	328%	
